Experimental data as given in US8796276B2, “Heterocyclic compounds for the treatment of neurological and psychological disorders” (Alkermes Pharma Ireland Limited, priority 2009, dated 2014).

Key:
[1] = Pharmacokinetic evaluation of prodrugs in rats following intramuscular injection; format: in vivo, Male Sprague-Dawley rats; conditions: rat, IM injection, plasma drug concentration; dose (mg/kg) and excipients/formulation differ per table line
Protocol: Pharmakokinetic Evaluation of Prodrugs in Rats Following Intramuscular Injection
Male Sprague-Dawley rats (Charles River Laboratories, Wilmington, Mass.) were obtained. Approximately 24 rats were used in each study. Rats were approximately 350-375 g at time of arrival. Rats were housed 2 per cage with ad libitum chow and water. Environmental conditions in the housing room: 64-67° F., 30% to 70% relative humidity, and 12:12-h light:dark cycle. All experiments were approved by the institutional animal care and use committee.
Rats were dosed IM by means of a 25 gauge, ⅝ in. needle with 1 cc syringe 0.3 mL suspension was withdrawn from the vial containing the test compound (see Table E). The […] was injected in the muscles of the hind limb after anesthesia with isoflourane. Blood samples were collected via a lateral tail vein after brief anesthesia with Isoflurane. A 27½ G needle and 1 cc syringe without an anticoagulant was used for the blood collection. Approximately […] of whole blood was collected at each sampling time-point of 6 hours, 24 hours and 2, 5, 7, 9, 12, 14, 21, 28, 35 days after administration. Once collected, whole blood was immediately transferred to tubes containing K2 EDTA, inverted 10-15 times and immediately placed on ice. The tubes were centrifuged for 2 minutes at >14,000 g's (11500 RPMs using Eppendorf Centrifuge 5417C, F45-30-11 rotor) at room temperature to separate plasma. Plasma samples were transferred to labeled plain tubes (MICROTAINER®; MFG# BD5962) and stored frozen at <−70° C.
Drug concentrations in plasma samples were analyzed by liquid chromatography-mass spectroscopy using appropriate parameters for each compound. Half-life, volume of distribution, clearance, maximal concentration, and AUC were calculated by using WinNonlin Version 5.2 software.

[2] = test system: D-Amphetamine-induced locomotion; assay: Pharmacodynamic study in amphetamine-induced locomotion model; conditions: D-AMPH 1.5 mg/kg IP
[3] = PO oral oil solution, at the higher dose of 20 mg
[4] = PO oral oil solution, 0.66, 10 and 20 mg/rat

| Compound | AUC0-T [1] | inhibition of increases in distance traveled caused by D-AMPH [2, 3] | other results |
| --- | --- | --- | --- |
| CCCCCCCCCCCCCC(=O)OCN1C(=O)CCc2ccc(OCCCCN3CCN(c4cccc(Cl)c4Cl)CC3)cc21 [Compound 8, (7-(4-(4-(2,3-dichlorophenyl)piperazin-1-yl)butoxy)-2-oxo-3,4-dihydroquinolin-1(2H)-yl)methyl tetradecanoate] | 666.1 ng·days/mL |  | AUC0-14 [1]: 580.3 ng·days/mL |
| CNC(=O)OCN1C(=O)CCc2ccc(OCCCCN3CCN(c4cccc(Cl)c4Cl)CC3)cc21 [Compound 47, (7-(4-(4-(2,3-dichlorophenyl)piperazin-1-yl)butoxy)-2-oxo-3,4-dihydroquinolin-1(2H)-yl)methyl methylcarbamate] |  | significantly inhibit |  |
| CCCCCC(=O)OCN1C(=O)CCc2ccc(OCCCCN3CCN(c4cccc(Cl)c4Cl)CC3)cc21 [Compound 4, (7-(4-(4-(2,3-dichlorophenyl)piperazin-1-yl)butoxy)-2-oxo-3,4-dihydroquinolin-1(2H)-yl)methyl hexanoate] |  |  | dose dependence of inhibition of distance travelled [2, 4]: did not appear to be dose dependent; inhibition of increases in distance traveled caused by D-AMPH [2, 4]: significantly inhibited |
| CCOC(=O)OCN1C(=O)CCc2ccc(OCCCCN3CCN(c4cccc(Cl)c4Cl)CC3)cc21 [Compound 79, (7-(4-(4-(2,3-dichlorophenyl)piperazin-1-yl)butoxy)-2-oxo-3,4-dihydroquinolin-1(2H)-yl)methyl ethyl carbonate] | 940 ng·days/mL |  |  |
| CCCCCCCCCCCC(=O)OCN1C(=O)CCc2ccc(OCCCCN3CCN(c4cccc(Cl)c4Cl)CC3)cc21 [Compound 7, (7-(4-(4-(2,3-dichlorophenyl)piperazin-1-yl)butoxy)-2-oxo-3,4-dihydroquinolin-1(2H)-yl)methyl dodecanoate] |  | significantly inhibit |  |
